Test results reported in patent US20140309244A1, “NOVEL MICROBIOCIDES” (SYNGENTA PARTICIPATIONS AG, priority 2010, published 2014).

What was measured:
[1] = test system: Puccinia recondita f. sp. tritici; test: Puccinia recondita f. sp. tritici / wheat / leaf disc preventative (brown rust); type: in vivo; settings: foliar, wheat cv Kanzler leaf segments, inoculated 1 day after application, assessed 7-9 days after application, read-out: control of Puccinia recondita f. sp. tritici (percent disease control compared to untreated)
[2] = test system: Gaeumannomyces graminis; test: Gaeumannomyces graminis / liquid culture (take-all of cereals); type: cell-based; settings: liquid culture of mycelial fragments, PDB potato dextrose broth, 96-well plate, 24° C., 4-5 days after application, read-out: control of Gaeumannomyces graminis (inhibition of growth, photometric)
[3] = test system: Phaeosphaeria nodorum (Septoria nodorum); test: Phaeosphaeria nodorum (Septoria nodorum) / wheat / leaf disc preventative (glume blotch); type: in vivo; settings: Parastagonospora nodorum, foliar, wheat cv Kanzler leaf segments, inoculated 2 days after application, assessed 5-7 days after application, read-out: control of Phaeosphaeria nodorum (percent disease control compared to untreated)
[4] = test system: Puccinia recondita f. sp. tritici; test: Puccinia recondita f. sp. tritici / wheat / leaf disc curative (brown rust); type: in vivo; settings: foliar, wheat cv Kanzler leaf segments, applied 1 day after inoculation, assessed 6-8 days after application, read-out: control of Puccinia recondita f. sp. tritici (percent disease control compared to untreated)
Experimental: Puccinia recondita f. sp. tritici/Wheat/Leaf Disc Curative (Brown Rust): Wheat leaf segments cv Kanzler were placed on agar in 24-well plates. The leaf segments were inoculated with a spore suspension of the fungus. The plates were stored in darkness at 19° C. and 75% relative humidity. The formulated test compound diluted in water was applied at an application rate of 200 ppm 1 day after inoculation.

[5] = test system: Magnaporthe grisea (Pyricularia oryzae); test: whole plant or invertebrate; type: in vivo; settings: foliar, read-out: control of Magnaporthe grisea (percent disease control compared to untreated)
[6] = test system: Blumeria graminis f. sp. tritici (Erysiphe graminis f. sp. tritici); test: Blumeria graminis f. sp. tritici (Erysiphe graminis f. sp. tritici) / wheat / leaf disc preventative (powdery mildew on wheat); type: in vivo; settings: foliar, wheat cv. Kanzler leaf segments, inoculated 1 day after application, assessed 6-8 days after application, read-out: control of Blumeria graminis (percent disease control compared to untreated)
[7] = test system: Pyrenophora teres; test: Pyrenophora teres / barley / leaf disc preventative (net blotch); type: in vivo; settings: foliar, barley cv Hasso leaf segments, inoculated two days after application, assessed 5-7 days after application, read-out: control of Pyrenophora teres (disease control compared to untreated)
[8] = test system: Botryotinia fuckeliana (Botrytis cinerea); test: Botryotinia fuckeliana (Botrytis cinerea) / liquid culture (gray mould); type: cell-based; settings: Vogels broth, 96-well plate, 24° C., 3-4 days after application, read-out: control of Botryotinia fuckeliana (inhibition of growth, photometric)
[9] = test system: Mycosphaerella arachidis (Cercospora arachidicola); test: Mycosphaerella arachidis (Cercospora arachidicola) / liquid culture (early leaf spot); type: cell-based; settings: PDB potato dextrose broth, 96-well plate, 24° C., 4-5 days after application, read-out: control of Mycosphaerella arachidis (inhibition of growth, photometric)
[10] = test system: Glomerella lagenarium (Colletotrichum lagenarium); test: Glomerella lagenarium (Colletotrichum lagenarium) / liquid culture (anthracnose); type: cell-based; settings: Colletotrichum orbiculare, PDB potato dextrose broth, 96-well plate, 24° C., 3-4 days after application, read-out: control of Glomerella lagenarium (inhibition of growth, photometric)
[11] = test system: Thanatephorus cucumeris (Rhizoctonia solani); test: Thanatephorus cucumeris (Rhizoctonia solani) / liquid culture (foot rot, damping-off); type: cell-based; settings: liquid culture of mycelia fragments, PDB potato dextrose broth, 96-well plate, 24° C., 3-4 days after application, read-out: control of Thanatephorus cucumeris (inhibition of growth, photometric)
Experimental: Thanatephorus cucumeris (Rhizoctonia solani)/Liquid Culture (Foot Rot, Damping-Off): Mycelia fragments of a newly grown liquid culture of the fungus are directly mixed into nutrient broth (PDB potato dextrose broth). After placing a DMSO solution of the test compounds into a 96-well microtiter plate at an application rate of 200 ppm, the nutrient broth containing the fungal material was added. The test plates were incubated at 24° C. and the inhibition of growth was determined photometrically 3-4 days after application.

[12] = test system: Mycosphaerella graminicola (Septoria tritici); test: Mycosphaerella graminicola (Septoria tritici) / liquid culture (Septoria blotch); type: cell-based; settings: Zymoseptoria tritici, PDB potato dextrose broth, 96-well plate, 24° C., 4-5 days after application, read-out: control of Mycosphaerella graminicola (inhibition of growth, photometric)
[13] = test system: Monographella nivalis (Microdochium nivale); test: Monographella nivalis (Microdochium nivale) / liquid culture (foot rot cereals); type: cell-based; settings: PDB potato dextrose broth, 96-well plate, 24° C., 4-5 days after application, read-out: control of Monographella nivalis (inhibition of growth, photometric)
In short: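 Cryostored conidia in potato dextrose broth added to test compound in DMSO at 200 ppm. Incubated at 24° C; growth inhibition read photometrically 4-5 days after application.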

CO/N=C(\C)c1cccc(CCCO/N=C2\CCCc3cc4ccccc4nc32)n1 [P.100]
≥ 80%: pest or weed control at 200 ppm [1] | inhibition at 200 ppm [2] | pest or weed control at 200 ppm [3] | pest or weed control at 200 ppm [4] | pest or weed control at 200 ppm [5] | pest or weed control at 200 ppm [6] | pest or weed control at 200 ppm [7] | inhibition at 200 ppm [8] | inhibition at 200 ppm [9] | inhibition at 200 ppm [10] | inhibition at 200 ppm [11] | inhibition at 200 ppm [12] | inhibition at 200 ppm [13]
